Data from patent publication US7968601B2, “Adamantyl acetamides as 11-β hydroxysteroid dehydrogenase inhibitors” (Janssen Pharmaceutica N.V., priority 2002, dated 2011).

Tests used:
11b-HSD2 [1] = biological target: T1, 11b-HSD2 (Homo sapiens, UniProt P80365); assay: Enzymatic assay, 11b-HSD2 dependent dehydrogenase activity; assay type: biochemical; settings: 11b-HSD2 dehydrogenase activity, pIC50 scored 1-3, read-out: [C1] HSD2 prot Dehydro Score
T1 sequence (P80365 1-405): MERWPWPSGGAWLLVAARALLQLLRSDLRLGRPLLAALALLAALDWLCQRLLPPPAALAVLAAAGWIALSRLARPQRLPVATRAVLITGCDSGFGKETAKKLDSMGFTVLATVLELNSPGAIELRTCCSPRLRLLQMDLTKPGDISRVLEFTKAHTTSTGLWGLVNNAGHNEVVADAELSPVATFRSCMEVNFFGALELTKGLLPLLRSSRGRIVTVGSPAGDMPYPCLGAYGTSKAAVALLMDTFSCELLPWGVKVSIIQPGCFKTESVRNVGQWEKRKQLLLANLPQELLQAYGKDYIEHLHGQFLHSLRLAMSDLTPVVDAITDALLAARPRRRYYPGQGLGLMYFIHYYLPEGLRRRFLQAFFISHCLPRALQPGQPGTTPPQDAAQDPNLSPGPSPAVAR
Protocol: The effects on the 11b-HSD2 dependent dehydrogenase activity was studied in a reaction mixture containing 0.1M sodium phosphate buffer pH 7.5, 300 μM NAD, 100 nM cortisol (of which 2 nM is 3H-radio labelled), 1 μl drug and/or solvent and 2.5 μg recombinant protein in a final volume of 100 μl.
(§1) All incubations were performed for 45 min at 37 C in a water bath. The reaction was stopped by adding 100 μl acetonitrile containing 20 μg corticosterone as internal standard. After centrifugation, the product formation was analysed in the supernatant by HPLC on a Hypersyl BDS-C18 column using 0.05 mM ammonium acetate/methanol (50/50) as solvent. In all of the aforementioned assays, the drugs to be tested were taken from a stock solution and tested at a final concentration ranging from […] to 3.10^−9M. From the thus obtained dose response curves, the pIC50 value was calculated and scored as follows; Score 1=pIC50 value<5, Score 2=pIC50 value in the range of 5 to 6, Score 3=pIC50 value>6. (in this table NT stands for Not Tested).

11b-HSD1 [2] = biological target: T2, 11b-HSD1 (Mus musculus, UniProt P50172); assay: Cellular assay, 11b-HSD1 activity in differentiated 3T3-L1 cells; assay type: cell-based; settings: 4 hour pre-incubation, pIC50 scored 1-3, read-out: [C2] HSD1 cellular 3T3-L1 Score
T2 construct: endogenous in cells; host or cells: 3T3-L1 (ATCC-CL-173), differentiated into adipocytes
T2 sequence (P50172 whole entry): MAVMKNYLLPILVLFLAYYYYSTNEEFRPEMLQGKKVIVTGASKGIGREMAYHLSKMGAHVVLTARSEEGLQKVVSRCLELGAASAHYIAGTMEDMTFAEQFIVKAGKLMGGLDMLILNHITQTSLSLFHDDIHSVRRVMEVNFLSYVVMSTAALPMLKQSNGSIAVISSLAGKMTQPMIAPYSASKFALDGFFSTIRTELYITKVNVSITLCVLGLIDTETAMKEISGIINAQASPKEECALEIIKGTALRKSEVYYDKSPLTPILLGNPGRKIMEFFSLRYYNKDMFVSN
Protocol: The effects on 11b-HSD1 activity was measured in differentiated 3T3-L1 cells and rat hepatocytes.
Mouse fibroblast 3T3-L1 cells (ATCC-CL-173) were seeded at a density of 16500 cells/ml in 12 well plates and grown for 7 days in DMEM medium (supplemented with 10% heat inactivated foetal calf serum, 2 mM glutamine and 25 mg gentamycin) at 37 C in a humidified 5% CO2 atmosphere. Medium was refreshed twice a week. Fibroblasts were differentiated into adipocytes at 37 C in a 5% CO2 humidified atmosphere in growth medium containing 2 μg/ml insulin, 55 μg/ml IBMX and 39.2 μg/ml dexamethasone.
Following a 4 hour pre-incubation with test compound, 0.5 μCi ^3H-cortisone or dehydrocorticosterone, was added to the cultures. One hour later, the medium was extracted on Extrelut^3-columns with 15 ml diethyl ether and the extract was analysed by HPLC as described above.
(§2) As for the enzymatic assays, the compounds to be tested were taken from a stock solution and tested at a final concentration ranging from […] to 3.10^−9M. From the thus obtained dose response curves, the pIC50 value was calculated and scored as follows; Score 1=pIC50 value<5, Score 2=pIC50 value in the range of 5 to 6, Score 3=pIC50 value>6. (in this table NT stands for Not Tested).

11b-HSD2 [3] = biological target: T1, 11b-HSD2; assay: Cellular assay, 11b-HSD2 activity in HepG2 cells; assay type: cell-based; parameters: endogenous in cells; host or cells: HepG2 (ATCC HB-8065); settings: 4 hour pre-incubation, pIC50 scored 1-3, read-out: [C2] HSD2 cellular HepG2 Score
Protocol: The effects on 11b-HSD2 activity was studied in HepG2 and LCC-PK1-cells HepG2-cells (ATCC HB-8065) were seeded in 12 well plates at a density of 100,000 cells/ml and grown at 37 C in a humidified 5% CO2 atmosphere in MEM-Rega-3 medium supplemented with 10% heat inactivated foetal calf serum, 2 mM L-glutamine and sodium bicarbonate). Medium was refreshed twice a week. Pig kidney cells (LCC-PK1, ATCC CRL-1392) were seeded at a density of 150,000 cells/ml in 12 well plates and grown at 37 C in a humidified 5% CO2 atmosphere in Medium 199 supplemented with Earls modified salt solution, 100 U/ml penicillin, 100 μg/ml streptomycin and 10% foetal calf serum. Medium was refreshed twice a week. Twenty four hours prior to the onset of the experiment, medium was changed by medium containing 10% charcoal stripped foetal calf serum.
Following a 4 hour pre-incubation with test compound, 0.5 μCi ^3H-cortisol or corticosterone, was added to the cultures. One hour later, the medium was extracted on Extrelut^3-columns with 15 ml diethyl ether and the extract was analysed by HPLC as described above.
as §2

11b-HSD1 [4] = biological target: 11b-HSD1 (Homo sapiens, UniProt P28845); assay: Enzymatic assay, 11b-HSD1 reductase activity (conversion of cortisone into cortisol); assay type: biochemical; settings: pIC50 scored 1-3, read-out: [C1] HSD1-prot Reduct Score
11b-HSD1 (Homo sapiens, UniProt P28845), sequence (P28845 whole entry): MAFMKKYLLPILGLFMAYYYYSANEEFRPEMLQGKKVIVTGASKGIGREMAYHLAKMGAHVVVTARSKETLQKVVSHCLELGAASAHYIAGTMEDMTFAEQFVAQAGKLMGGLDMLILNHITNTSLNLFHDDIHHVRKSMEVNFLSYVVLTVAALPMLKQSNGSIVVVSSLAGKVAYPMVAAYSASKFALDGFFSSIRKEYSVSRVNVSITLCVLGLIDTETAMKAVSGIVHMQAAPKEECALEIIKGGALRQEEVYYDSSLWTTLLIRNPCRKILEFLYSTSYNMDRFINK
Protocol: The effects of compounds on 11b-HSD1 dependent conversion of cortisone into cortisol (reductase activity) was studied in a reaction mixture containing 30 mM Tris-HCl buffer pH 7.2, 180 μM NADPH, 1 mM EDTA, 2 μM cortisone, 1 μl drug and/or solvent and 11 μg recombinant protein in a final volume of 100 μl.
as §1

Row | Compound | IC50 (11b-HSD2 [1]) [µM] | IC50 (11b-HSD1 [2]) [µM] | IC50 (11b-HSD2 [3]) [µM] | IC50 (11b-HSD1 [4]) [µM]
1 | CC(C)(C(=O)NC1C2CC3CC(C2)CC1C3)c1ccc(Cl)cc1 (stereo not shown) [Compound 1] | > 10 | < 1 | > 10 | 
2 | Cc1cc(C)cc(C(C)(C)C(=O)NC2C3CC4CC(C3)CC2C4)c1 (stereo not shown) [Compound 3] |  | < 1 | > 10 | < 1
3 | CC(C)(C(=O)NC1C2CC3CC(C2)CC1C3)c1cccc(O)c1 (stereo not shown) [Compound 5] | > 10 | < 1 | > 10 | < 1
4 | CC(C)(C(=O)NC1C2CC3CC(C2)CC1C3)c1cccc(OCC(=O)O)c1 (stereo not shown) [Compound 6] | > 10 | < 1 | > 10 | 1 to 10
5 | CN(C)CCOc1cccc(C(C)(C)C(=O)NC2C3CC4CC(C3)CC2C4)c1 (stereo not shown) [Compound 7] |  | < 1 | > 10 | > 10
6 | O=C(NC12CC3CC(CC(C3)C1)C2)C1(c2ccccc2)CCC1 [Compound 16] | > 10 | 1 to 10 | > 10 | 
7 | CC1CCCCC1NC(=O)C1(c2ccccc2)CC1 (stereo not shown) [Compound 19] | > 10 | 1 to 10 | > 10 | 
8 | O=C(NC1CC2CCC1C2)C1(c2ccccc2)CCCC1 (stereo not shown) [Compound 22] | > 10 | 1 to 10 | > 10 | 
9 | CC(C(=O)NC1C2CC3CC(C2)CC1C3)c1ccccc1 (stereo not shown) [Compound 28] |  | < 1 | > 10 | 
10 | CCC(C(=O)NC1C2CC3CC(C2)CC1C3)c1ccccc1 (stereo not shown) [Compound 29] |  | < 1 | > 10 | 
11 | O=C(Cc1ccccc1)NC1C2CC3CC(C2)CC1C3 (stereo not shown) [Compound 30] |  | < 1 | > 10 | 
12 | O=C(NCC12CC3CC(CC(C3)C1)C2)C1(c2ccccc2)CC1 [Compound 31] | > 10 | < 1 | > 10 | 
13 | O=C(NCC12CC3CC(CC(C3)C1)C2)C1(c2ccccc2)CCCC1 [Compound 35] | > 10 | 1 to 10 | > 10 | 
14 | CC(C)(C(=O)NC1C2CC3CC(C2)CC1C3)c1ccc(F)cc1 (stereo not shown) [Compound 41] | > 10 | < 1 | > 10 | < 1
15 | COC(C(=O)NC1C2CC3CC(C2)CC1C3)c1ccccc1 (stereo not shown) [Compound 43] | > 10 | 1 to 10 | > 10 | < 1
16 | CC(C)(C(=O)NC1CCCCCCC1)c1ccccc1 [Compound 46] | > 10 | < 1 | > 10 | > 10
17 | COc1ccc(C(C)(C)C(=O)NC2C3CC4CC(C3)CC2C4)cc1 (stereo not shown) [Compound 47] | > 10 | < 1 | > 10 | < 1
18 | CC(C)(C(=O)NC1C2CCCC1CCC2)c1ccccc1 (stereo not shown) [Compound 48] | > 10 | < 1 | > 10 | > 10
